Assay results: patent publication US20120244567A1, “HUMAN EMBRYONIC STEM CELLS FOR HIGH THROUGHOUT DRUG SCREENING” (BUCK INSTITUTE FOR RESEARCH ON AGING, priority 2009, published 2012)
Structures can show the parent of a compound that is named as a salt. Where two headings read alike, the source gives them in different places.

What was measured:
NSCs [1] = experiment: Cell death observed in NSCs in 35-mm dishes; assay type: cell-based, human
From the text: NSCs and dopaminergic neurons grown in 35-mm dishes were exposed to amiodarone HCl.

2102Ep cells = experiment: Effect on immortal cell line 2102Ep; assay type: cell-based, human; conditions: 48 hours after treatment, data not shown
From the text: Media was changed every day and cells were passaged every 3-4 days at a ratio of between 1:4 to 1:6.

[2] = test system: hESCs and hESC-derived NSCs; experiment: Comparative ATP screening on hESCs and hESC-derived NSCs (ratio ESC/NSC or NSC/ESC); set-up: hit class in primary screen / ESC/NSC: dose or concentration left out as unconfirmed; conditions: NINDS primary screen, ATP relative to DMSO controls
From the text: Hits were defined based on the ability of a compound to affect ATP levels relative to DMSO controls on each plate.

NSCs [3] = test system: NSCs
Method: RNAs isolated from NSCs and neurons with and without drug treatments were hybridized to Illumina HumanRef-8 BeadChip (Illumina, Inc., San Diego, Calif., performed by Microarray core facility at the Burnham Institute for Medical Research). The Illumina array data were normalized by the quantile method, and then transformed log 2 ratio values for a zero mean for expression values of each gene across all samples. The statistical and bioinformatics analyses were conducted by using R and the bioconductor package (www.bioconductor.org). The gene set enrichment analysis was conducted using the GSEA software (www.broad.mit.edu/gsea).

[4] = Amiloride sensitive Na channels, 4 hours of exposure
[5] = Amine transporters, 4 hours of exposure
[6] = Ca activated K channels, 4 hours of exposure
[7] = Calcium channels, 4 hours of exposure
[8] = Cl channels, 4 hours of exposure
[9] = Delayed rectifier K channels, 4 hours of exposure
[10] = H ion transporters, 4 hours of exposure
[11] = Rectifier K channels, 4 hours of exposure
[12] = Voltage gated Na channels, 4 hours of exposure

## CCCCc1oc2ccccc2c1C(=O)c1cc(I)c(OCCN(CC)CC)c(I)c1 [Amiodarone Hydrochloride]
NSCs [1]; 35-mm dishes
  time after drug exposure at which cell death was observed in NSCs: 2 h
NSCs [1]; by 8 hours, 35-mm dishes
  cell death in NSCs: more than 90%
NSCs [1]; within one hour of drug administration
  cell death in similarly treated NSCs: massive cell death
2102Ep cells
  effect on 2102Ep cells: no effect
[2]
  hit class in primary screen: NSC Killers
NSCs [3]
  ERG expression, Treated NSC: 32.9
NSCs [3]; [4]
  ACCN1 gene expression, Treated NSC: 16.5
  ACCN2 gene expression, Treated NSC: 185.7
  ACCN3 gene expression, Treated NSC: 11
NSCs [3]; [5]
  SLC1A2 gene expression, Treated NSC: 15.7
  SLC1A3 gene expression, Treated NSC: 552.1
  SLC6A3 gene expression, Treated NSC: 21.2
  SLC6A9 gene expression, Treated NSC: 329.2
  SLC6A12 gene expression, Treated NSC: 9.6
NSCs [3]; [6]
  KCNMB1 gene expression, Treated NSC: 62.9
  KCNN1 gene expression, Treated NSC: 6.5
  KCNN2 gene expression, Treated NSC: 15.8
  KCNN3 gene expression, Treated NSC: 0.7
NSCs [3]; [7]
  CACNA1A gene expression, Treated NSC: 2
  CACNA1C gene expression, Treated NSC: 25.9
  CACNB2 gene expression, Treated NSC: 7.8
  CACNG2 gene expression, Treated NSC: 2.5
NSCs [3]; [8]
  CLCN2 gene expression, Treated NSC: 41.6
  CLCN3 gene expression, Treated NSC: 566.5
  CLCN6 gene expression, Treated NSC: 349.8
  CLCN7 gene expression, Treated NSC: 1305.5
  CLIC1 gene expression, Treated NSC: 122.2
NSCs [3]; [9]
  KCNA5 gene expression, Treated NSC: 24.2
  KCNB1 gene expression, Treated NSC: 32.8
  KCNB2 gene expression, Treated NSC: 25
NSCs [3]; [10]
  ATP5B gene expression, Treated NSC: 7030.3
  ATP6V0A2 gene expression, Treated NSC: 190.2
  ATP6V0D1 gene expression, Treated NSC: 3355
  ATP6V1A gene expression, Treated NSC: 1155.9
  ATP6V1B2 gene expression, Treated NSC: 385.4
  SLC2A1 gene expression, Treated NSC: 1274.8
  SLC2A11 gene expression, Treated NSC: 22.8
  SLC35B1 gene expression, Treated NSC: 1769.8
NSCs [3]; NSCs, four hours after exposure
  expression of Fos, FosB and DDIT3: significantly up regulated
NSCs [3]; [11]
  KCNC4 gene expression, Treated NSC: 4.5
  KCND2 gene expression, Treated NSC: 2.3
  KCNF1 gene expression, Treated NSC: 189.2
  KCNG1 gene expression, Treated NSC: 150.4
  KCNJ4 gene expression, Treated NSC: 15.9
  KCNJ6 gene expression, Treated NSC: 317.3
  KCNJ11 gene expression, Treated NSC: 13.5
  KCNQ3 gene expression, Treated NSC: 3.4
NSCs [3]; Rectifier K channels, first line for this gene, 4 hours of exposure
  KCNQ2 gene expression, Treated NSC: 138.1
NSCs [3]; Rectifier K channels, second line for this gene, 4 hours of exposure
  KCNQ2 gene expression, Treated NSC: 919.6
NSCs [3]; [12]
  SCN1A gene expression, Treated NSC: 20.5
  SCN3A gene expression, Treated NSC: 5.7
  SCN9A gene expression, Treated NSC: 1.9
NSCs [3]; differentiated cells, treated versus untreated cells
  expression of KLF 10 (intrinsic mitochondrial apoptotic pathway): not altered
NSCs [3]; four hours after exposure
  AFF1 expression, Treated NSC: 50.8
  ARID3A expression, Treated NSC: 2200
  ASCL2 expression, Treated NSC: 36
  CREBL1 expression, Treated NSC: 32.2
  DDIT3 expression, Treated NSC: 2270
  DLX1 expression, Treated NSC: 1550
  DLX2 expression, Treated NSC: 54.3
  E2F2 expression, Treated NSC: 635
  E2F7 expression, Treated NSC: 711
  E2F8 expression, Treated NSC: 82.7
  EGR1 expression, Treated NSC: 3100
  EGR2 expression, Treated NSC: 155
  ELF4 expression, Treated NSC: 103
  ELF5 expression, Treated NSC: 30.8
  ELK3 expression, Treated NSC: 89.9
  ELK4 expression, Treated NSC: 39.3
  EN1 expression, Treated NSC: 48.7
  ETS1 expression, Treated NSC: 952
  ETV1 expression, Treated NSC: 34.4
  ETV4 expression, Treated NSC: 672
  FOS expression, Treated NSC: 1160
  FOSB expression, Treated NSC: 174
  FOXA2 expression, Treated NSC: 36.8
  FOXD1 expression, Treated NSC: 79.7
  FOXF2 expression, Treated NSC: 39.3
  FOXL2 expression, Treated NSC: 120
  FOXM1 expression, Treated NSC: 287
  GATA2 expression, Treated NSC: 46.2
  GLI2 expression, Treated NSC: 227
  HCLS1 expression, Treated NSC: 40
  HEY2 expression, Treated NSC: 37.9
  HIRA expression, Treated NSC: 31.5
  HMGB2 expression, Treated NSC: 2170
  HOXA2 expression, Treated NSC: 770
  HOXA13 expression, Treated NSC: 33.2
  HOXB1 expression, Treated NSC: 30.6
  HOXB2 expression, Treated NSC: 1100
  HOXB3 expression, Treated NSC: 186
  HOXB4 expression, Treated NSC: 198
  HOXB5 expression, Treated NSC: 49.9
  HOXD3 expression, Treated NSC: 70.2
  IRF1 expression, Treated NSC: 38.9
  KLF10 expression, Treated NSC: 38.1
  L3MBTL expression, Treated NSC: 27.5
  LHX8 expression, Treated NSC: 42.9
  MEF2C expression, Treated NSC: 33.1
  MEOX1 expression, Treated NSC: 178
  MSX2 expression, Treated NSC: 41.9
  MYEF2 expression, Treated NSC: 30.6
  NFATC3 expression, Treated NSC: 32.4
  NFATC4 expression, Treated NSC: 32.8
  NFKB2 expression, Treated NSC: 68
  NR1D2 expression, Treated NSC: 44.9
  NR2C2 expression, Treated NSC: 65.3
  NR4A2 expression, Treated NSC: 30.4
  NRK expression, Treated NSC: 43.8
  PAX8 expression, Treated NSC: 98.9
  PBX2 expression, Treated NSC: 70.8
  PRDM1 expression, Treated NSC: 94.7
  PRRX2 expression, Treated NSC: 67.5
  RELB expression, Treated NSC: 53.6
  RUNX1 expression, Treated NSC: 43.3
  SALL1 expression, Treated NSC: 80.9
  SIX4 expression, Treated NSC: 185
  STAT6 expression, Treated NSC: 55.8
  TAF5L expression, Treated NSC: 77.4
  TAF13 expression, Treated NSC: 35.2
  TBX2 expression, Treated NSC: 46.9
  TEAD3 expression, Treated NSC: 87
  TEAD4 expression, Treated NSC: 235
  TEF expression, Treated NSC: 32.4
  TGIF1 expression, Treated NSC: 117
  TP53 expression, Treated NSC: 267
  ZNF85 expression, Treated NSC: 93.8
  ZNF197 expression, Treated NSC: 32.8
  ZNF274 expression, Treated NSC: 37.8
  ZNF367 expression, Treated NSC: 30.9
  ZSCAN29 expression, Treated NSC: 47.6
